Data on one molecule can be found in publication PMC8750527 (Cancers, 2021).

Data set [1] deals with DAOY. Nature of the data set: Cumulative population doubling (CPD), DAOY. Type of data set: cell-based, human. Conditions: continuous treatment; axitinib 5 µM, etoposide 1 µM. Here is the method:
Cumulative population doubling (CPD) was assessed as previously described. Briefly, depending on the cell line, a variable number of cells corresponding to about 30% confluency were seeded in triplicate in 60 mm diameter Petri dishes. […] The cells were harvested when the confluency reached about 90%, counted and plated again at a dilution of 1/20. CPD was calculated as previously described.

Data set [2] relates to MB cells (DAOY, HD-MB03, D283, D458, CHLA-01-MED spheroids). The experiment in a line: Spheroid assay, five MB cell lines. Format: cell-based, human. Conditions: 5 µM, continuous treatment. As for the experimental part: Two thousand cells were seeded in ultralow-adhesion 96-well plates (Corning Inc., Corning, NY, USA). […] Pictures were taken with an AMG Evos microscope 40× objective (Thermo Fisher Scientific Inc, Waltham, MA, USA) and the spheroid areas were measured using the ImageJ software (NIH, Bethesda, MD, USA).

The test system of data set [3] is barrier formed by HUVEC. Nature of the data set: In vitro endothelium permeability assay (FITC-Dextran), HUVEC. Format: cell-based, human. Conditions: 3-day treatment, nontoxic doses. As for the experimental part: This assay was conducted as previously described. […] Permeability was measured by the passage of 40 kDa FITC-Dextran through the inserts. Fluorescence intensity measures were normalized to the DMSO control.

The test system of data set [4] is subcutaneous DAOY tumors. As to conditions: oral, thrice a week; axitinib 50 mg/kg, etoposide 30 mg/kg, combination 25 + 15 mg/kg. Here is the method: For subcutaneous xenograft experiments, tumor cells expressing the luciferase (350,000 HDMB-Luc cells and 1.10^6 DAOY-Luc cells) were resuspended in 200 µL of 5 µg/mL Matrigel (Corning Inc., Corning, NY, USA) and injected subcutaneously in the flank of 5-week-old Rj:NMRI-Foxn1 nude (nu/nu) female mice (Janvier Labs, Le Genest-Saint-Isle, France). Saline solution (NaCl 0.9M; 100 µL) containing 30 mg/mL D-Luciferin (Perkin Elmer, Wellesley, MA, USA) was injected intraperitoneally in the animals and the bioluminescence was quantified using an In Vivo Imaging System (Perkin Elmer, Wellesley, MA, USA) according to the manufacturer’s instructions. Tumor volume (V = L × l2 × 0.52) was determined with a caliper and the endpoint was determined as a tumor volume of 1000 mm^3. […] The mice were sacrificed when the tumor reached 1000 mm^3. […]
The growth rate of the tumors generated with HD-MB03 cells was determined using a linear regression method applied to the growth curves between the sizes of 400 mm^3 up to the endpoint using Prism 5 (Graphpad Software Inc., San Diego, CA, USA).
Tumor samples were recovered from the animals and embedded in the OCT compound according to the manufacturer’s protocol (Thermo Fisher Scientific Inc., Waltham, MA, USA). […] All the images were then quantified with the CellProfiler 3.0 software.

Turning to `CNC(=O)c1ccccc1Sc1ccc2c(/C=C/c3ccccn3)n[nH]c2c1` [Axitinib, axitinib], the “long-term proliferation (CPD) of DAOY cells” value in data set [1] is given as “strongly impaired their proliferation”. Also, in data set [2], the “3D growth of MB cell spheroids” value is recorded as “abolished 3D growth”. Also, the “permeability of the barrier formed by HUVEC” value in data set [3] is “permeabilized the barrier”. Also, in data set [4], the “tumor growth (lognormal mathematical modelling)” value is “did not impair tumor growth”.
